Experimental data: ChEMBL document CHEMBL3804814, “Quinazolines and quinazolinones as ubiquitous structural fragments in medicinal chemistry: An update on the development of synthetic methods and pharmacological diversification” (Bioorg Med Chem, 2016)
Blank lines part the entries; values can stand above or below the molecule they belong to.

How the values were obtained:
[1] = target: Epidermal growth factor receptor (Homo sapiens) (UniProt P00533); assay: Inhibition of EGFR-TK receptor (unknown origin); details: concentration not given here
[2] = Protective index, ratio of neurotoxicity in mouse to anticonvulasnt activity for MES-induced seizure mouse model; format: toxicity, organism-based; details: in vivo, read-out: PI
Mus musculus = species on record: Mus musculus; assay: Anticonvulsant activity in mouse assessed as reduction in MES-induced seizures by maximal electroshock seizure test; format: functional
[3] = target: Cathepsin B (Capra hircus) (UniProt H9B8T9); details: 100 nM
Description: Inhibition of goat cathepsin B at 100 nM in presence of BANA after 30 mins by colorimetric method

[4] = target: Cathepsin B (Capra hircus) (UniProt H9B8T9); details: 25 uM
Description: Inhibition of goat cathepsin B at 25 uM in presence of BANA after 30 mins by colorimetric method

[5] = Anticancer activity against human HCT116 cells measured after 48 hrs by SRB assay; format: functional, cell-based; details: hct-116
HepG2 [6] = assay: Cytotoxicity against human HepG2 cells measured after 48 hrs by SRB assay; format: functional, cell-based
HepG2 [7] = assay: Potency index, ratio of doxorubicin IC50 to compound IC50 for anticancer activity against human HepG2 cells after 48 hrs by SRB assay; format: functional
Thymidine phosphorylase = Thymidine phosphorylase (Escherichia coli K-12, UniProt P07650); assay: Inhibition of recombinant Escherichia coli thymidine phosphorylase using thymidine as substrate measured after 10 mins at 30 degC by spectrophotometric method
[8] = target: Epidermal growth factor receptor (Homo sapiens) (UniProt P00533); assay: Inhibition of EGFR-tyrosine kinase (unknown origin) at 10 uM measured after 2 hrs by kinase-glo plus luminescence kinase assay
Plasmodium berghei [9] = assay: Antimalarial activity against chloroquine-sensitive Plasmodium berghei ANKA infected Swiss albino mouse assessed as parasitemia at 18.73 mg/kg administered for 4 consecutive days measured on 5th day by Giemsa staining based microscopic method; format: functional
Plasmodium berghei [10] = assay: Antimalarial activity against chloroquine-sensitive Plasmodium berghei ANKA infected Swiss albino mouse assessed as suppression of parasitemia at 18.73 mg/kg administered for 4 consecutive days measured on 5th day by Giemsa staining based microscopic method; format: functional
Plasmodium berghei [11] = assay: Antimalarial activity against chloroquine-sensitive Plasmodium berghei ANKA infected Swiss albino as mean survival time at 18.73 mg/kg administered for 4 consecutive days; format: functional
Cavia porcellus = species on record: Cavia porcellus; assay: Antihistaminic activity in guinea pigs assessed as supression of histamine induced bronchospasm
[12] = Anticancer activity against human NCI lung cancer cell by MTT assay; format: functional, cell-based; details: Cancer cell lines
[13] = Anticancer activity against human HCT116 cells measured after 72 hrs by MTT assay; format: functional, cell-based; details: HCT-116, 72 h
HT-29 = assay: Anticancer activity against human HT-29 cells measured after 72 hrs by MTT assay; format: functional, cell-based; details: HT-29, 72 h
[14] = Cytotoxicity against human lymphocytes measured after 72 hrs by MTT assay; format: cell-based; details: Lymphocyte
Plasmodium berghei [15] = assay: Antimalarial activity against chloroquine-sensitive Plasmodium berghei ANKA infected Swiss albino mouse assessed as suppression of parasitemia at 16.59 mg/kg administered for 4 consecutive days measured on 5th day by Giemsa staining based microscopic method; format: functional
Plasmodium berghei [16] = assay: Antimalarial activity against chloroquine-sensitive Plasmodium berghei ANKA infected Swiss albino mouse assessed as mean survival time at 16.59 mg/kg administered for 4 consecutive days; format: functional
[17] = target: T1, Cathepsin H (Capra hircus) (UniProt A0A060INS8); assay: Inhibition of goat cathepsin H at 750 uM in presence of Leu-beta-NA after 30 mins by colorimetric method
T1 sequence (whole entry): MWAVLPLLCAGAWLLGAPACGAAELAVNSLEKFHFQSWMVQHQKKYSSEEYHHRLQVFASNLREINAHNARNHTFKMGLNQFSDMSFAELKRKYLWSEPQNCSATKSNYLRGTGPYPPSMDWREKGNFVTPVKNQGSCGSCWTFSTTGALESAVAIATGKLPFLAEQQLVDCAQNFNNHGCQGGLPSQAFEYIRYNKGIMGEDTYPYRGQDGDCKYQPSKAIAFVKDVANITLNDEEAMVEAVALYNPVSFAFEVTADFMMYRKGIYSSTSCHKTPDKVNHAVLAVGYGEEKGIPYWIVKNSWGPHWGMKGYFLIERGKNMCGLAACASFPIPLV

[18] = target: T1, Cathepsin H (Capra hircus); assay: Inhibition of goat cathepsin H at 10 uM in presence of Leu-beta-NA after 30 mins by colorimetric method

Chain of Thymidine phosphorylase (P07650 whole entry): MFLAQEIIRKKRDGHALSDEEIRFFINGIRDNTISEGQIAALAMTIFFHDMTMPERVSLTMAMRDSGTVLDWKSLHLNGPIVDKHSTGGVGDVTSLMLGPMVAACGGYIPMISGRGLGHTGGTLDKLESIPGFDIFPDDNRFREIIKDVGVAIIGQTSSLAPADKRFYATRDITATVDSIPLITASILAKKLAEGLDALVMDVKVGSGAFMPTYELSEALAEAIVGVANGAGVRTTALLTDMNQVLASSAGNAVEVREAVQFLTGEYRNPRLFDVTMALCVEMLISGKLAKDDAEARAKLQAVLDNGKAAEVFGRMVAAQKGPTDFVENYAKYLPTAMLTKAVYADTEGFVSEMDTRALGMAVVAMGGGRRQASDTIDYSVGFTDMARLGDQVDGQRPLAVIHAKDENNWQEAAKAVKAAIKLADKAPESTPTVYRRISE
Chain of Epidermal growth factor receptor (Homo sapiens) (P00533 whole entry): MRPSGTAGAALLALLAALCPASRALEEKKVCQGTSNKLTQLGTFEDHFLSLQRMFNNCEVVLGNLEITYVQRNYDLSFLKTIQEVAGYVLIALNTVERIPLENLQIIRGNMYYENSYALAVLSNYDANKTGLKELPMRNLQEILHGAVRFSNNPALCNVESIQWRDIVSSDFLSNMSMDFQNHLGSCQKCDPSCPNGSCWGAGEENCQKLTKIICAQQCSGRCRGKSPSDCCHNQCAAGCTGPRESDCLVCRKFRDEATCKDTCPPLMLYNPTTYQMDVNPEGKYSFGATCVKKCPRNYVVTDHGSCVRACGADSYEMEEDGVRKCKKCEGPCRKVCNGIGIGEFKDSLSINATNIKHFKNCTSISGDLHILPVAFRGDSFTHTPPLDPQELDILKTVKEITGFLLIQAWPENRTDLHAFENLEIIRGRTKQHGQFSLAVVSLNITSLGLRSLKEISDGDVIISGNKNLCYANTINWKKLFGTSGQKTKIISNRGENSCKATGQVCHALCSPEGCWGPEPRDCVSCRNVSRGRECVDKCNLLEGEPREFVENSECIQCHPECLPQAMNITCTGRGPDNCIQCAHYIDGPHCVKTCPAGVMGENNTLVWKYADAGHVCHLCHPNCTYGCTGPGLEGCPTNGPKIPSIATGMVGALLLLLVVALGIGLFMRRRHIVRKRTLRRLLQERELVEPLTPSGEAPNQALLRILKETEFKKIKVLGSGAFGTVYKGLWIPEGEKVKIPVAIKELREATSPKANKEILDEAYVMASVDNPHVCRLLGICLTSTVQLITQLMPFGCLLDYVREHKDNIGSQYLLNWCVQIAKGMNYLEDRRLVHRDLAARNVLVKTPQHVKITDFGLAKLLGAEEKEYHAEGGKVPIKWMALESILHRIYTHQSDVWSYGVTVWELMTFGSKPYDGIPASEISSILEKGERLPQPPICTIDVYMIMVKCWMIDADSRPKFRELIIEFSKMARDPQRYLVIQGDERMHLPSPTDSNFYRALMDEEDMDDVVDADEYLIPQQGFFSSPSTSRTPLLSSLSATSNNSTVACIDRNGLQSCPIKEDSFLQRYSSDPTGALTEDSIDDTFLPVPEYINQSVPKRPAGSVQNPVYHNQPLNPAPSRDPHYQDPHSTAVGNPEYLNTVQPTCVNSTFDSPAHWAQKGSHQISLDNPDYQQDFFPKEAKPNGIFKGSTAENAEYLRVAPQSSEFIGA

inhibition [1]: 84%
Structure (SMILES): O=C(/C=C/c1ccccc1)c1ccc(-n2c(-c3ccco3)nc3ccccc3c2=O)cc1

Structure (SMILES): O=c1c2ccccc2nc(-n2cncn2)n1-c1cccc(Br)c1
selectivity ratio [2]: > 26
ED50 (Mus musculus): 94.6 mg/kg

inhibition [3]: 50%
inhibition [4]: 100%
Structure (SMILES): Cc1ccc(C2NC(=O)c3ccccc3N2)cc1 (configuration not stated)

Structure (SMILES): COc1ccc(-c2cc(-c3ccc(-n4c(-c5ccco5)nc5ccccc5c4=O)cc3)[nH]c(=N)c2C#N)cc1
IC50 [5]: 0.2 µM
IC50 (HepG2 [6]): 6.6 µM
Ratio IC50 (HepG2 [7]): 4

IC50 (Thymidine phosphorylase): 42.9 µM
Structure (SMILES): O=c1[nH]c(-c2ccc(O)c(O)c2)nc2ccccc12

inhibition [8]: 95.6%
Structure (SMILES): N#CC1=C(N)OC(c2ccc(-n3c(-c4ccco4)nc4ccccc4c3=O)cc2)=CC1c1ccc(Cl)cc1 (configuration not stated)
Ratio IC50 (HepG2 [7]): 24

Structure (SMILES): COc1cc(/C=C/c2nc3ccccc3c(=O)n2-c2ccccc2C)ccc1O
Activity (Plasmodium berghei [9]): 17.71%
inhibition in vivo at 18.73 mg/kg (Plasmodium berghei [10]): 72.9%
MST (Plasmodium berghei [11]): 9.2 days

Structure (SMILES): Cc1nnc2n(-c3cccc(Cl)c3)c(=O)c3ccccc3n12
inhibition (INH) (Cavia porcellus): 69.65%

Structure (SMILES): Cc1cc(C)nc(NS(=O)(=O)c2ccc(-n3c(C)nc4ccc(F)cc4c3=O)cc2)n1
IC50 [12]: 2.51 µM

Structure (SMILES): CN(Cc1cnc2nc(N)nc(N)c2n1)c1ccc(C(=O)N[C@@H](CCC(=O)O)C(=O)O)cc1 [METHOTREXATE]
IC50 [12]: 2.4 µM

IC50 (HT-29): 50.9 µM
Structure (SMILES): O=c1c2cc(N3CCN(c4ccccc4F)CC3)ccc2ncn1Cc1ccccc1
IC50 [13]: 46 µM
IC50 [14]: 197 µM

Structure (SMILES): COc1cccc2c1C(=O)c1c(O)c3c(c(O)c1C2=O)C[C@@](O)(C(=O)CO)C[C@@H]3O[C@H]1C[C@H](N)[C@H](O)[C@H](C)O1 [DOXORUBICIN]
IC50 [5]: 4.8 µM
IC50 (HepG2 [6]): 5.7 µM

Structure (SMILES): Cc1ccc(-c2cc(-c3ccc(-n4c(-c5ccco5)nc5ccccc5c4=O)cc3)[nH]c(=N)c2C#N)cc1
IC50 [5]: 1.2 µM
IC50 (HepG2 [6]): 6.7 µM

IC50 (Thymidine phosphorylase): 59.5 µM
Structure (SMILES): O=c1[nH]c(-c2cc(O)ccc2O)nc2ccccc12

Structure (SMILES): CN(C)CCC(c1ccc(Cl)cc1)c1ccccn1.O=C(O)/C=C\C(=O)O (configuration not stated) [CHLORPHENIRAMINE MALEATE]
inhibition (INH) (Cavia porcellus): 70.09%

Structure (SMILES): O=c1c2ccccc2nc(/C=C/c2ccc(O)cc2)n1-c1ccccc1
inhibition in vivo at 16.59 mg/kg (Plasmodium berghei [15]): 67.6%
MST (Plasmodium berghei [16]): 8.3 days

Structure (SMILES): O=c1c2ccccc2nc(-n2cncn2)n1-c1ccc(Cl)cc1
selectivity ratio [2]: > 25.5
ED50 (Mus musculus): 88 mg/kg

inhibition [17]: 50%
inhibition [18]: 100%
Structure (SMILES): O=C1NC(c2ccc(F)cc2)Nc2ccccc21 (configuration not stated)
